Measured values: patent publication US20050113296A1, “Methods for identifying antimicrobial agents, the agents identified therewith and methods of using same” (priority 2001, published 2005)

Biological target: T1, E. coli yfhC polypeptide (Escherichia coli, UniProt P68398)
T1 construct: made in house; negative controls used a pBAD-derived vector
Assay: yfhC polypeptide deamination of a defined substrate, inosine monitored by HPLC of the digest
Assay type: biochemical
Settings: 2 μg yfhC polypeptide (cell lysate), 20 μg stem loop or 8 μg tRNA^Arg2, 50 μl, 30 min
Experimental: The experimental protocol consisted of two steps. First an in vitro reaction was conducted using a defined yfhC substrate and the yfhC polypeptide supplied as a lysate from an over-producing strain of bacteria. The reactions were then digested enzymatically to mononucleotides with a mixture of three enzymes (nuclease P1, snake venom phosphodiesterase and alkaline phosphatase and the resultant digest analyzed by HPLC to monitor for the appearance of inosine (the product of the yfhC polypeptide deamination reaction).
In this experiment, a series of reactions were run with a synthetic RNA corresponding to the following anticodon stem loop 17-mer of E. coli tRNA^Arg2, in both the linear and folded form (the anticodon is underlined):
All reactions were carried out with the indicated amounts of yfhC substrate and yfhC polypeptide (in the form of a cell lysate) in a final volume of 50 μl. For experiments employing refolded yfhC substrate, the substrate was first boiled and slowly cooled in refolding buffer (30 mM HEPES, pH 7.9, 150 mM NaCl, 10 mM Mg Cl2) prior to adding to the reaction mixture. […] The pellets were resuspended in 50 μl H2O, digested with a mixture of nuclease P1, snake venom phosphodiesterase 1 and alkaline phosphatase (all enzymes in excess) and analyzed by HPLC (Develosil C-30 column, 2 mm×250 mm; Nomura Chemical, Japan). […]

T1 sequence (P68398 whole entry): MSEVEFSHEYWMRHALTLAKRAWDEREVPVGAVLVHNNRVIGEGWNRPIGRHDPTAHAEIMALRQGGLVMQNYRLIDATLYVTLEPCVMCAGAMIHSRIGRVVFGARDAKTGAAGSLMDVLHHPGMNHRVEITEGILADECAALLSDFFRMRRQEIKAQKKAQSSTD

Substance: stem loop: synthetic RNA 17-mer corresponding to the anticodon stem loop of E. coli tRNA^Arg2, linear and refolded; yfhC substrate (CNCGGCNACGAACCGAG; RNA, backbone, methylation of C and the base at N not given here; n positions are unspecified nucleotides, further chemistry not fully specified)
- activity as yfhC substrate (inosine peak in HPLC elution profile): greatest-activity
